Values joined by “and” are separate entries in the source; they are usually repeats but may differ in a detail not shown here. Equal values may be shown once. Inconclusive results and toxic doses are left out. No stated cut-off is given here; in the data, active means T/C of 150% or more; inactive means T/C below 125%.
Test system: L1210 leukemia ip in BDF1 mice, survival T/C
Assay: NCI In Vivo Anticancer Drug Screen. Data for tumor model L1210 Leukemia (intraperitoneal) in B6D2F1 (BDF1) mice
Conditions: endpoint: mean survival time, higher = longer survival
How it was run: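 Tumor cells were implanted, animals were treated, and survival was followed. The result divides the treated measurement by the vehicle-control measurement.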

[1] = dose: 100.0 mg/kg/injection, schedule: Q01DX001 (ip), vehicle: saline with Tween-80
[2] = dose: 100.0 mg/kg/injection, schedule: Q01DX009 (ip), vehicle: saline with Tween-80
[3] = dose: 100.0 mg/kg/injection, schedule: Q04DX002 (ip), vehicle: saline with Tween-80
[4] = dose: 100.0 mg/kg/injection, schedule: Q04DX003 (ip), vehicle: saline with Tween-80
[5] = dose: 200.0 mg/kg/injection, schedule: Q01DX001 (ip), vehicle: saline with Tween-80
[6] = dose: 200.0 mg/kg/injection, schedule: Q01DX009 (ip), vehicle: saline with Tween-80
[7] = dose: 200.0 mg/kg/injection, schedule: Q04DX002 (ip), vehicle: saline with Tween-80
[8] = dose: 200.0 mg/kg/injection, schedule: Q04DX003 (ip), vehicle: saline with Tween-80
[9] = dose: 400.0 mg/kg/injection, schedule: Q01DX001 (ip), vehicle: saline with Tween-80
[10] = dose: 400.0 mg/kg/injection, schedule: Q01DX009 (ip), vehicle: saline with Tween-80
[11] = dose: 400.0 mg/kg/injection, schedule: Q04DX002 (ip), vehicle: saline with Tween-80
[12] = dose: 400.0 mg/kg/injection, schedule: Q04DX003 (ip), vehicle: saline with Tween-80
[13] = dose: 100.0 mg/kg/injection, schedule: Q04DX003 (ip), vehicle: saline
[14] = dose: 200.0 mg/kg/injection, schedule: Q04DX003 (ip), vehicle: saline
[15] = dose: 400.0 mg/kg/injection, schedule: Q04DX003 (ip), vehicle: saline
[16] = dose: 100.0 mg/kg/injection, schedule: Q01DX001 (ip), vehicle: carboxymethylcellulose (CMC)
[17] = dose: 200.0 mg/kg/injection, schedule: Q01DX001 (ip), vehicle: carboxymethylcellulose (CMC)
[18] = dose: 400.0 mg/kg/injection, schedule: Q01DX001 (ip), vehicle: carboxymethylcellulose (CMC)
[19] = dose: 100.0 mg/kg/injection, schedule: Q01DX001 (ip), vehicle: Klucel (hydroxypropylcellulose) (HPC)
[20] = dose: 400.0 mg/kg/injection, schedule: Q01DX001 (ip), vehicle: Klucel (hydroxypropylcellulose) (HPC)
[21] = dose: 100.0 mg/kg/injection, schedule: Q01DX001 (ip), vehicle: saline
[22] = dose: 200.0 mg/kg/injection, schedule: Q01DX001 (ip), vehicle: saline
[23] = dose: 50.0 mg/kg/injection, schedule: Q01DX009 (ip), vehicle: saline with Tween-80
[24] = dose: 25.0 mg/kg/injection, schedule: Q04DX002 (ip), vehicle: saline with Tween-80

Measured: T/C

CC(=O)Oc1cccc(OC(=O)Nc2cccc(Cl)c2C)c1
inactive: [1] 93 % of control | [2] 104 % of control and 107 % of control | [3] 94 % of control and 104 % of control | [4] 88 % of control | [5] 100 % of control | [6] 96 % of control and 90 % of control | [7] 94 % of control and 101 % of control | [8] 86 % of control | [9] 93 % of control | [10] 93 % of control and 100 % of control | [11] 97 % of control and 104 % of control | [12] 89 % of control

NC1CC[N-]CC1.NC1CC[N-]CC1.[Cl][Pt+2][Cl]
inactive: dose: 50.0 mg/kg/injection, schedule: Q04DX003 (ip), vehicle: saline 108 % of control | dose: 100.0 mg/kg/injection, schedule: Q01DX009 (ip), vehicle: saline 94 % of control | [13] 102 % of control | dose: 200.0 mg/kg/injection, schedule: Q01DX009 (ip), vehicle: saline 100 % of control | [14] 108 % of control | [15] 100 % of control

CCCCSC(=O)C(C)O (configuration not stated)
inactive: [3] 99 % of control | [7] 89 % of control | [11] 86 % of control

CCOC(=O)/C=C(/C)C#N
inactive: [16] 103 % of control | [17] 97 % of control | [18] 98 % of control

ClC1=C(Cl)C(Cl)(Cl)C1(Cl)Cl
inactive: dose: 75.0 mg/kg/injection, schedule: Q01DX001 (ip), vehicle: carboxymethylcellulose (CMC) 109 % of control

CN(N=O)C(=O)NCCn1cnc2c(=S)nc[nH]c21
inactive: dose: 6.0 mg/kg/injection, schedule: Q01DX Z (ip), vehicle: carboxymethylcellulose (CMC) 95 % of control | dose: 12.0 mg/kg/injection, schedule: Q01DX Z (ip), vehicle: carboxymethylcellulose (CMC) 92 % of control | dose: 25.0 mg/kg/injection, schedule: Q01DX Z (ip), vehicle: carboxymethylcellulose (CMC) 109 % of control | dose: 50.0 mg/kg/injection, schedule: Q01DX Z (ip), vehicle: carboxymethylcellulose (CMC) 114 % of control | dose: 100.0 mg/kg/injection, schedule: Q01DX Z (ip), vehicle: carboxymethylcellulose (CMC) 104 % of control | dose: 150.0 mg/kg/injection, schedule: Q01DX Z (ip), vehicle: carboxymethylcellulose (CMC) 121 % of control

CC1CCC(C(C)C)/C(=N/S)C1 (configuration not stated)
inactive: dose: 75.0 mg/kg/injection, schedule: Q04DX003 (ip), vehicle: saline 93 % of control | dose: 150.0 mg/kg/injection, schedule: Q04DX003 (ip), vehicle: saline 96 % of control | dose: 300.0 mg/kg/injection, schedule: Q04DX003 (ip), vehicle: saline 104 % of control

COC1CCC2(C)C(=CCC3C2CCC2(C)C(C(C)CCCC(C)C)CCC32)C1 (configuration not stated)
inactive: [19] 97 % of control | dose: 200.0 mg/kg/injection, schedule: Q01DX001 (ip), vehicle: Klucel (hydroxypropylcellulose) (HPC) 94 % of control | [20] 94 % of control

COc1cccc(C2CCCCCC2OS(C)(=O)=O)c1OC (configuration not stated)
inactive: [21] 109 % of control | [13] 102 % of control | [22] 102 % of control | [14] 109 % of control | dose: 400.0 mg/kg/injection, schedule: Q01DX001 (ip), vehicle: saline 112 % of control | [15] 102 % of control

CC1C(C(=O)c2ccc(-c3ccccc3)cc2)N1c1ccccc1 (configuration not stated)
inactive: [19] 94 % of control | [20] 94 % of control

S=C(NP(=S)(NC(=S)N1CC1)NC(=S)N1CC1)N1CC1
inactive: [16] 95 % of control | [17] 91 % of control | [18] 90 % of control

CC(=O)[C@@]1(O)CC[C@H]2[C@@H]3CCC4=CC(=O)CC[C@]4(C)[C@@]3(F)[C@@H](O)C[C@@]21C
inactive: dose: 100.0 mg/kg/injection, schedule: Q01DX Z (sc), vehicle: steriod suspending solution 98 % of control | dose: 200.0 mg/kg/injection, schedule: Q01DX Z (sc), vehicle: steriod suspending solution 98 % of control | dose: 400.0 mg/kg/injection, schedule: Q01DX Z (sc), vehicle: steriod suspending solution 100 % of control

C[N+](C)(C)C1C2(CCCCC2)NC(=O)C12CCCCC2 (configuration not stated)
inactive: dose: 75.0 mg/kg/injection, schedule: Q01DX001 (ip), vehicle: saline 96 % of control

O=C1OC(c2ccccc2)=N/C1=C/c1ccc(OCc2ccccc2)c(OCc2ccccc2)c1
inactive: [1] 91 % of control | [5] 95 % of control | [9] 86 % of control

COc1ccc(/C=C/C(=O)c2ccc(OCc3ccccc3)c(OC)c2)cc1OC
inactive: [23] 105 % of control | [2] 104 % of control | [6] 98 % of control | [10] 90 % of control | dose: 500.0 mg/kg/injection, schedule: Q01DX009 (ip), vehicle: saline with Tween-80 102 % of control

CCCCN1C(=O)C2CCc3ccncc3C2C1=O (configuration not stated)
inactive: [13] 103 % of control | [14] 97 % of control | [15] 103 % of control

O=C(Sc1ccc([N+](=O)[O-])cc1)C(=O)Sc1ccc([N+](=O)[O-])cc1
inactive: [2] 87 % of control | [6] 97 % of control

NC1CCCCC1.[I][Pb]([I])([I])[I]
inactive: [4] 106 % of control | [8] 95 % of control | [12] 96 % of control

BrC1C2CC3C(C2)C13 (configuration not stated)
inactive: dose: 100.0 mg/kg/injection, schedule: Q01DX009 (ip), vehicle: Klucel (hydroxypropylcellulose) (HPC) 104 % of control | dose: 100.0 mg/kg/injection, schedule: Q04DX003 (ip), vehicle: Klucel (hydroxypropylcellulose) (HPC) 100 % of control | dose: 200.0 mg/kg/injection, schedule: Q01DX009 (ip), vehicle: Klucel (hydroxypropylcellulose) (HPC) 95 % of control | dose: 200.0 mg/kg/injection, schedule: Q04DX003 (ip), vehicle: Klucel (hydroxypropylcellulose) (HPC) 95 % of control | dose: 400.0 mg/kg/injection, schedule: Q01DX009 (ip), vehicle: Klucel (hydroxypropylcellulose) (HPC) 98 % of control | dose: 400.0 mg/kg/injection, schedule: Q04DX003 (ip), vehicle: Klucel (hydroxypropylcellulose) (HPC) 93 % of control

CCSC(=O)n1ncc2cc(Cl)ccc21
inactive: dose: 100.0 mg/kg/injection, schedule: Q01DX001 (ip), vehicle: other 105 % of control | dose: 200.0 mg/kg/injection, schedule: Q01DX001 (ip), vehicle: other 97 % of control | dose: 400.0 mg/kg/injection, schedule: Q01DX001 (ip), vehicle: other 108 % of control

C=C1CC2(OC1=O)C(=O)N(C)c1ccc(I)cc12 (configuration not stated)
inactive: [24] 101 % of control | dose: 50.0 mg/kg/injection, schedule: Q04DX002 (ip), vehicle: saline with Tween-80 97 % of control | [3] 102 % of control

On1ccccc1=S
inactive: dose: 6.25 mg/kg/injection, schedule: Q04DX002 (ip), vehicle: saline with Tween-80 100 % of control | dose: 12.5 mg/kg/injection, schedule: Q04DX002 (ip), vehicle: saline with Tween-80 111 % of control | [24] 100 % of control

c1ccc(-c2nc3nnnn3nc2-c2ccccc2)cc1
inactive: dose: 50.0 mg/kg/injection, schedule: Q01DX001 (ip), vehicle: saline 100 % of control | [21] 103 % of control | [22] 98 % of control

O=C(Nc1ccccc1)SCCSC(=O)Nc1ccccc1
inactive: [1] 88 % of control | [4] 97 % of control | [5] 88 % of control | [8] 88 % of control | [9] 90 % of control | [12] 87 % of control

COC(=O)Nc1nc2ccccc2[nH]1
inactive: [23] 97 % of control | [16] 94 % of control | [2] 101 % of control | [4] 94 % of control | [17] 97 % of control | [6] 97 % of control | [8] 103 % of control | [18] 100 % of control | [10] 116 % of control | [12] 105 % of control
